Data published in patent US8802700B2 (Vertex Pharmaceuticals Incorporated, priority 2010, dated 2014).

These molecules were tested against T1, ΔF508-CFTR (Homo sapiens, UniProt P13569, DEL508-508) (assay: Membrane potential optical assay (FRET voltage-sensor dyes, VIPR), identification of potentiator compounds). Details: Table 3; assay not given.
T1 construct: expressed in transfected cells
T1 sequence (P13569 with tags, fused parts or gaps DEL508-508): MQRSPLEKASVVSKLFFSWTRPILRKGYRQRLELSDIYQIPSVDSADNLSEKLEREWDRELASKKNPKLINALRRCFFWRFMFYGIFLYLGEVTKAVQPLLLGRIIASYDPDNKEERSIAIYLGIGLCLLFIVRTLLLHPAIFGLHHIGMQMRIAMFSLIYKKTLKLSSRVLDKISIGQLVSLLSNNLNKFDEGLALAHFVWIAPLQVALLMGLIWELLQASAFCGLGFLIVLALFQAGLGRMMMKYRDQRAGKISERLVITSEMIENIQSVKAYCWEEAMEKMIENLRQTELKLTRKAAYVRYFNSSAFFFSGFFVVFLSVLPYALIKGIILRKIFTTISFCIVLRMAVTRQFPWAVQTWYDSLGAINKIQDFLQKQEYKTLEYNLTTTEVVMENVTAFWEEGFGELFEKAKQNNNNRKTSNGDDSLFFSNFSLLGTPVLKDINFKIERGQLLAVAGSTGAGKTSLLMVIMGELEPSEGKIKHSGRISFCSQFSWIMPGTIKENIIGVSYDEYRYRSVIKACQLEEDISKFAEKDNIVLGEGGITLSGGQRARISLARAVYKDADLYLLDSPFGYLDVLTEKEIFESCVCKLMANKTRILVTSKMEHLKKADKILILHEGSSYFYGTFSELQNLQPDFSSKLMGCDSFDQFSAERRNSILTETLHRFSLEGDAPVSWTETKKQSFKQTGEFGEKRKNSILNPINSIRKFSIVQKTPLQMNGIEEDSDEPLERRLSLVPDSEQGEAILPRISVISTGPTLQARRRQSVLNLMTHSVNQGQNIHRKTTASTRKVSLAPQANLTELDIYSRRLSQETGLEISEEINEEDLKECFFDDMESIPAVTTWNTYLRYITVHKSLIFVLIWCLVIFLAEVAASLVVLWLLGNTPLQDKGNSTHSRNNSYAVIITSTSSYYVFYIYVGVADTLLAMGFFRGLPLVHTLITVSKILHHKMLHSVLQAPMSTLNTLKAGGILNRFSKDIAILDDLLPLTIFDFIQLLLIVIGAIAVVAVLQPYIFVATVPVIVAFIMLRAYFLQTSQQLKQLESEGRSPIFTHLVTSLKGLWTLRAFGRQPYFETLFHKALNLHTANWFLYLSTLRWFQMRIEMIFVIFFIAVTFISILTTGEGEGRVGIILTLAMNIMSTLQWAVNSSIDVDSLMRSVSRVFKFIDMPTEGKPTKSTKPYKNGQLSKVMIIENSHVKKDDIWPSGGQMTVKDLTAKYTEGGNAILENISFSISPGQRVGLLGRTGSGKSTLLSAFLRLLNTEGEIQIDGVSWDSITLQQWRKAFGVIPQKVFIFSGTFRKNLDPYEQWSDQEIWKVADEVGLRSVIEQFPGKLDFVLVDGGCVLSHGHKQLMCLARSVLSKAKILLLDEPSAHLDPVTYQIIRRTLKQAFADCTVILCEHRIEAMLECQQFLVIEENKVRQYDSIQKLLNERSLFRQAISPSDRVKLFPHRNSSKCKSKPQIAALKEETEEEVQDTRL
Format: cell-based
How it was run: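 Potentiator screen measured membrane potential via FRET between CC2-DMPE donor and DiSBAC2(3), read on VIPR II. Compound went in with the first addition of chloride-free gluconate bath; cells were ΔF508-CFTR-expressing NIH3T3 mouse fibroblasts, temperature-corrected at 27 °C for 24 h.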
In the case of `CCOc1ccccc1-c1ccccc1NC(=O)c1c[nH]c2ccccc2c1=O` [Compound 344, N-[2-(2-ethoxyphenyl)phenyl]-4-oxo-1H-quinoline-3-carboxamide], the EC50 is reported as less than 10 µM.
In the case of `CCCc1ccc(N)cc1NC(=O)c1c[nH]c2ccccc2c1=O` [Compound 41, N-(5-amino-2-propyl-phenyl)-4-oxo-1H-quinoline-3-carboxamide], the EC50 is reported as less than 10 µM.
Molecule `CCCc1ccc(NC(C)=O)cc1NC(=O)c1c[nH]c2ccccc2c1=O` [Compound 232, N-(5-acetylamino-2-propyl-phenyl)-4-oxo-1H-quinoline-3-carboxamide] has an EC50 of 10 to 25 µM.

Same assay, conditions: Table 3; assay not given; read-out: % Activity (% Efficacy, relative efficacy)
Work on `O=C(Nc1ccccc1N1CCCC1)c1c[nH]c2ccccc2c1=O` [Compound 295, 4-oxo-N-(2-pyrrolidin-1-ylphenyl)-1H-quinoline-3-carboxamide] yielded an Emax of 25 to 100%.
Work on `CC(C)(C)c1cc(F)c(NC(=O)c2c[nH]c3ccc(F)cc3c2=O)cc1O` [Compound 319, 6-fluoro-N-(2-fluoro-5-hydroxy-4-tert-butyl-phenyl)-4-oxo-1H-quinoline-3-carboxamide] yielded an Emax of 25 to 100%.
For `CC(C)(C)c1ccc(NC(=O)c2c[nH]c3ccccc3c2=O)cc1N1CCCCC1` [Compound 510, 4-oxo-N-[3-(1-piperidyl)-4-tert-butyl-phenyl]-1H-quinoline-3-carboxamide], the Emax was 25 to 100%.
`O=C(Nc1cccc(S(=O)(=O)N2CCCC2)c1)c1c[nH]c2ccccc2c1=O` [Compound 24, 4-oxo-N-(3-pyrrolidin-1-ylsulfonylphenyl)-1H-quinoline-3-carboxamide] showed an Emax of less than 25%.
For `CC(C)c1cccc(-c2ccccc2NC(=O)c2c[nH]c3ccccc3c2=O)c1` [Compound 290, N-[2-(3-isopropylphenyl)phenyl]-4-oxo-1H-quinoline-3-carboxamide], the Emax was 25 to 100%.
Molecule `O=C(Nc1cccc2nsnc12)c1c[nH]c2ccccc2c1=O` [Compound 54, 4-oxo-N-(8-thia-7,9-diazabicyclo[4.3.0]nona-2,4,6,9-tetraen-5-yl)-1H-quinoline-3-carboxamide] has an Emax of less than 25%.
`CCOc1ccccc1-c1ccccc1NC(=O)c1c[nH]c2ccccc2c1=O` [Compound 344, N-[2-(2-ethoxyphenyl)phenyl]-4-oxo-1H-quinoline-3-carboxamide] was tested, and the Emax was 25 to 100%.
`COc1ccc(Oc2ccc(C(F)(F)F)cc2NC(=O)c2c[nH]c3ccccc3c2=O)cc1` [Compound 205, N-[2-(4-methoxyphenoxy)-5-(trifluoromethyl)phenyl]-4-oxo-1H-quinoline-3-carboxamide] was tested, and the Emax was 25 to 100%.
`O=C(Nc1ccccc1-c1cc(Cl)cc(Cl)c1)c1c[nH]c2ccccc2c1=O` [Compound 367, N-[2-(3,5-dichlorophenyl)phenyl]-4-oxo-1H-quinoline-3-carboxamide] was tested, and the Emax was 25 to 100%.
Work on `NC(=O)c1ccccc1NC(=O)c1c[nH]c2ccccc2c1=O` [Compound 331, N-(2-carbamoylphenyl)-4-oxo-1H-quinoline-3-carboxamide] yielded an Emax of less than 25%.
Work on `CC(C)(C)c1cccc(NC(=O)c2c[nH]c3ccccc3c2=O)c1` [Compound 602, 4-oxo-N-(3-tert-butylphenyl)-1H-quinoline-3-carboxamide] yielded an Emax of 25 to 100%.
With `O=C(Nc1ccc(Cl)nc1)c1c[nH]c2ccccc2c1=O` [Compound 392, N-(6-chloro-3-pyridyl)-4-oxo-1H-quinoline-3-carboxamide] the Emax was less than 25%.
`CC(C)(C)c1cc(C(C)(C)C)c(NC(=O)c2c[nH]c3c(F)ccc(F)c3c2=O)cc1O` [Compound 718, 5,8-difluoro-N-(5-hydroxy-2,4-ditert-butyl-phenyl)-4-oxo-1H-quinoline-3-carboxamide] showed an Emax of 25 to 100%.
`CCOc1ccc(-c2ccccc2NC(=O)c2c[nH]c3ccccc3c2=O)cc1` [Compound 348, N-[2-(4-ethoxyphenyl)phenyl]-4-oxo-1H-quinoline-3-carboxamide] was tested, and the Emax was 25 to 100%.
Molecule `O=C(Nc1ccc(N2CCCC2)cc1C(F)(F)F)c1c[nH]c2ccccc2c1=O` [Compound 658, 4-oxo-N-[4-pyrrolidin-1-yl-2-(trifluoromethyl)phenyl]-1H-quinoline-3-carboxamide] has an Emax of 25 to 100%.
`CCCc1ccc(N)cc1NC(=O)c1c[nH]c2ccccc2c1=O` [Compound 41, N-(5-amino-2-propyl-phenyl)-4-oxo-1H-quinoline-3-carboxamide] gave an Emax of 25 to 100%.
With `Nc1cc(NC(=O)c2c[nH]c3ccccc3c2=O)c(Cl)cc1Cl` [Compound 242, N-(5-amino-2,4-dichloro-phenyl)-4-oxo-1H-quinoline-3-carboxamide] the Emax was 25 to 100%.
Molecule `O=C(Nc1cc(Cl)cc(NS(=O)(=O)CCN2CCCCC2)c1)c1c[nH]c2ccccc2c1=O` [Compound 133, N-[3-chloro-5-[2-(1-piperidyl)ethylsulfonylamino]phenyl]-4-oxo-1H-quinoline-3-carboxamide] has an Emax of 25 to 100%.
`CCCc1ccc(NC(C)=O)cc1NC(=O)c1c[nH]c2ccccc2c1=O` [Compound 232, N-(5-acetylamino-2-propyl-phenyl)-4-oxo-1H-quinoline-3-carboxamide] gave an Emax of 25 to 100%.
With `O=C(Nc1c(Cl)cccc1Cl)c1c[nH]c2ccccc2c1=O` [Compound 317, N-(2,6-dichlorophenyl)-4-oxo-1H-quinoline-3-carboxamide] the Emax was 25 to 100%.
With `CCOc1ccc(NC(C)=O)cc1NC(=O)c1c[nH]c2ccccc2c1=O` [Compound 132, N-(5-acetylamino-2-ethoxy-phenyl)-4-oxo-1H-quinoline-3-carboxamide] the Emax was less than 25%.
In the case of `CC(CO)(CO)c1ccc(NC(=O)c2c[nH]c3ccccc3c2=O)cc1` [Compound 590, N-[4-[2-hydroxy-1-(hydroxymethyl)-1-methyl-ethyl]phenyl]-4-oxo-1H-quinoline-3-carboxamide], the Emax is reported as less than 25%.
`CCOc1ccc(OCC)c(NC(=O)c2c[nH]c3ccccc3c2=O)c1` [Compound 264, N-(2,5-diethoxyphenyl)-4-oxo-1H-quinoline-3-carboxamide] showed an Emax of 25 to 100%.
Work on `Cc1cccc(NC(=O)c2c[nH]c3ccccc3c2=O)c1C` [Compound 61, N-(2,3-dimethylphenyl)-4-oxo-1H-quinoline-3-carboxamide] yielded an Emax of 25 to 100%.
`CC(CO)(CO)c1ccc(NC(=O)c2c[nH]c3cccc(O)c3c2=O)cc1` [Compound 493, 5-hydroxy-N-[4-[2-hydroxy-1-(hydroxymethyl)-1-methyl-ethyl]phenyl]-4-oxo-1H-quinoline-3-carboxamide] gave an Emax of 25 to 100%.
In the case of `O=C(Nc1cc2[nH]ccc2cc1C(F)(F)F)c1c[nH]c2ccccc2c1=O` [Compound 234, 4-oxo-N-[5-(trifluoromethyl)-1H-indol-6-yl]-1H-quinoline-3-carboxamide], the Emax is reported as 25 to 100%.
`O=C(Nc1ccc(C(F)(F)F)cc1Cl)c1c[nH]c2ccccc2c1=O` [Compound 532, N-[2-chloro-4-(trifluoromethyl)phenyl]-4-oxo-1H-quinoline-3-carboxamide] was tested, and the Emax was 25 to 100%.
`CC(C)(C)OC(=O)NCCc1c[nH]c2cc(NC(=O)c3c[nH]c4ccccc4c3=O)ccc12` [Compound 352, 2-[6-[(4-oxo-1H-quinolin-3-yl)carbonylamino]-1H-indol-3-yl]ethylaminoformic acid tert-butyl ester] showed an Emax of 25 to 100%.
Work on `Cc1cccc2[nH]cc(C(=O)Nc3ccc(N4CC(F)(F)C[C@H]4C)cc3C(F)(F)F)c(=O)c12` [Compound 667, (R)-N-(4-(4,4-difluoro-2-methylpyrrolidin-1-yl)-2-(trifluoromethyl)phenyl)-5-methyl-4-oxo-1,4-dihydroquinoline-3-carboxamide] yielded an Emax of 25 to 100%.
`O=C(Nc1ccc2[nH]ncc2c1)c1c[nH]c2ccccc2c1=O` [Compound 217, N-(1H-indazol-5-yl)-4-oxo-1H-quinoline-3-carboxamide] showed an Emax of 25 to 100%.
For `CC1(c2cc(F)c(NC(=O)c3cnc4ccccc4c3O)cc2O)CCCCCC1` [Compound 483, N-[2-fluoro-5-hydroxy-4-(1-methylcycloheptyl)-phenyl]-4-hydroxy-quinoline-3-carboxamide], the Emax was 25 to 100%.
`O=C(Nc1cccc(S(=O)(=O)N2CCOCC2)c1)c1c[nH]c2ccccc2c1=O` [Compound 185, N-(3-morpholinosulfonylphenyl)-4-oxo-1H-quinoline-3-carboxamide] gave an Emax of less than 25%.
For `COc1ccc(Cl)cc1-c1cc2cc[nH]c2cc1NC(=O)c1c[nH]c2ccccc2c1=O` [Compound 1, N-[5-(5-chloro-2-methoxy-phenyl)-1H-indol-6-yl]-4-oxo-1H-quinoline-3-carboxamide], the Emax was 25 to 100%.
In the case of `CC(C)(C)c1cc(C(C)(C)C)c(NC(=O)c2c[nH]c3ccc(F)cc3c2=O)cc1O` [Compound 103, 6-fluoro-N-(5-hydroxy-2,4-ditert-butyl-phenyl)-4-oxo-1H-quinoline-3-carboxamide], the Emax is reported as greater than 100%.
With `COc1ccc2[nH]cc(C(=O)Nc3cc(O)c(C4(C)CCCCC4)cc3F)c(=O)c2c1` [Compound 584, N-[2-fluoro-5-hydroxy-4-(1-methylcyclohexyl)-phenyl]-6-methoxy-4-oxo-1H-quinoline-3-carboxamide] the Emax was 25 to 100%.
`O=C(Nc1ccc2cc[nH]c2c1)c1c(C(F)(F)F)[nH]c2ccccc2c1=O` [Compound 184, N-(1H-indol-6-yl)-4-oxo-2-(trifluoromethyl)-1H-quinoline-3-carboxamide] was tested, and the Emax was less than 25%.
For `COc1ccc(-c2ccccc2NC(=O)c2c[nH]c3ccccc3c2=O)c(OC)c1` [Compound 312, N-[2-(2,4-dimethoxyphenyl)phenyl]-4-oxo-1H-quinoline-3-carboxamide], the Emax was 25 to 100%.
`O=C(Nc1ccc2c(c1)C(O)CCC2)c1c[nH]c2ccccc2c1=O` (stereo not shown) [Compound 200, 1,4-dihydro-N-(1,2,3,4-tetrahydro-1-hydroxynaphthalen-7-yl)-4-oxoquinoline-3-carboxamide] gave an Emax of 25 to 100%.
`CCc1ccc(Cl)c(CC)c1NC(=O)c1c[nH]c2ccccc2c1=O` [Compound 91, N-(3-chloro-2,6-diethyl-phenyl)-4-oxo-1H-quinoline-3-carboxamide] showed an Emax of 25 to 100%.
In the case of `O=C(Nc1cccn2ncnc12)c1c[nH]c2ccccc2c1=O` [Compound 146, 4-oxo-N-(1,7,9-triazabicyclo[4.3.0]nona-2,4,6,8-tetraen-5-yl)-1H-quinoline-3-carboxamide], the Emax is reported as less than 25%.
In the case of `O=C(Nc1ccccc1-c1ccccc1OC(F)(F)F)c1c[nH]c2ccccc2c1=O` [Compound 156, 4-oxo-N-[2-[2-(trifluoromethoxy)phenyl]phenyl]-1H-quinoline-3-carboxamide], the Emax is reported as 25 to 100%.
`CCC(=O)Nc1cccc(NC(=O)c2c[nH]c3ccccc3c2=O)c1` [Compound 81, 4-oxo-N-(3-propionylaminophenyl)-1H-quinoline-3-carboxamide] was tested, and the Emax was less than 25%.
Molecule `COc1ccc(NC(=O)c2c[nH]c3ccccc3c2=O)cn1` [Compound 162, N-(6-methoxy-3-pyridyl)-4-oxo-1H-quinoline-3-carboxamide] has an Emax of less than 25%.
